Test results taken from PMC5570900, “Exploiting a novel conformational switch to control innate immunity mediated by complement protein C3a” (Nature Communications, 2017).
Values belong to the molecule of their own block, whether it stands above or below them.

Columns and labels:
C3aR [1] = target: T1, C3aR (Homo sapiens, UniProt Q16581); experiment: Histamine secretion in human LAD2 mast cells (agonist mode); format: cell-based; design: Concentration-dependent histamine secretion in human LAD2 mast cells; endogenous in cells; host or cells: LAD2 human mast cells; settings: for EC50: compound alone, 30 min, n ≥ 3, ± SEM
T1 sequence (Q16581 1-482): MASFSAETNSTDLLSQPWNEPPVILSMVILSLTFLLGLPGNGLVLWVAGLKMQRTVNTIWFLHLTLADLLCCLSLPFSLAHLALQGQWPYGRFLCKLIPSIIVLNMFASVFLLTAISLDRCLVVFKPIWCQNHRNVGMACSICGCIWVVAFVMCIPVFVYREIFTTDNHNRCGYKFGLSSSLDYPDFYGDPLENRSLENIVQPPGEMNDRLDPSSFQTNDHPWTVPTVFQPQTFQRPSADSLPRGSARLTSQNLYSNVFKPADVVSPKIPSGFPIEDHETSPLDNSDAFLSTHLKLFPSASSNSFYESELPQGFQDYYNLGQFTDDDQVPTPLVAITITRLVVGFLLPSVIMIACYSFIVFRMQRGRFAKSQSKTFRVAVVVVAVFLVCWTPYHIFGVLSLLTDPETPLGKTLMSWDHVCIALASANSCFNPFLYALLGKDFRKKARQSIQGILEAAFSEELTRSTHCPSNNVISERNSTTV
Protocol: LAD2 human mast cells (kindly provided by Dr Dean Metcalfe, National Institute of Allergy and Infectious Diseases, National Institute of Health) were cultured in StemPro®-34 Serum Free Media (Invitrogen, Australia) supplemented with StemPro®-34 nutrient, 100 U/mL penicillin, 100 μg/mL streptomycin, 2 mM GlutaMAX, and 100 ng/mL human stem cell factor (SCF). Cells were hemi-depleted weekly and were not allowed to grow beyond a density of 0.5 × 10^6/mL. This cell line was authenticated by expression of tryptase and histamine granules. For the histamine assay, 1 × 10^4 cells per well were seeded in StemPro®-34 SFM in 96-well plates for 30 min before any treatments. For agonist studies, the cells were treated with compounds prepared in media for 30 min. For antagonist studies, the cells were pre-treated with compounds prepared in SFM for 30 min before addition of C3aR agonists for another 30 min. Cells were centrifuged (500 g, 5 min, 4 °C) and cell-free supernatants were collected for measuring histamine. Histamine content was measured using the histamine EIA kit according to the manufacturer’s instructions (Abnova, Taiwan). The readings were recorded on a FLUOstar Optima (BMG LabTechnologies, Offenburg, Germany).

C3aR [2] = target: T1, C3aR; experiment: Intracellular Ca2+ release in human monocyte-derived macrophages (agonist mode); format: cell-based; design: Concentration-dependent Ca^2+ release in human monocyte-derived macrophages (HMDMs); endogenous in cells; host or cells: primary human monocyte-derived macrophages (HMDMs); settings: HMDMs, n ≥ 3, ± SEM
Protocol: (§1) HMDMs were isolated using Ficoll-paque density centrifugation (GE Healthcare Bio-Science, Uppsala, Sweden) from buffy coat (of anonymous human donors) provided by the Australian Red Cross Blood Service, Brisbane. CD14^+ monocytes were positively selected using CD14 MicroBeads (Miltenyi Biotech, Auburn, USA)[40], [41]. CD14^+ monocytes were differentiated to HMDMs using 100 ng/mL of recombinant human macrophage colony-stimulating factor (PeptroTech, Rocky Hill, USA) for 7 days in Iscove’s modified Dulbecco’s media supplemented with 10% fetal bovine serum, penicillin (100 U/mL), streptomycin (100 µg/mL) and L-glutamine (2 mM). HMDMs were supplemented after 5 days with fresh medium containing 10 ng/ml macrophage colony-stimulating factor and collected by gentle scraping on day 7.
(§2) HMDMs were seeded to a 96-well clear-bottom black-wall assay plate at a density of 5 × 10^4 cells per well and allowed to adhere overnight. Prior to assay, cells were incubated with dye-loading buffer (Hank’s balance salt solution (HBSS) buffer, 4 μM Fluo-3 AM, 25 μl Pluronic acid F-127 and 1% fetal bovine serum) for 1 h at 37 °C. Cells were then washed once with assay buffer (HBSS supplemented with 2.5 mM probenecid and 20 mM HEPES, pH 7.4). Intracellular calcium release was monitored using a fluorescence imaging plate reader (excitation 495 nm, emission 520 nm). The percentage responses were plotted against logarithmic concentrations of each test compound[42].

C3aR [3] = target: T1, C3aR; experiment: Inhibition of hC3a-induced Ca2+ release in human monocyte-derived macrophages; format: cell-based; design: Concentration-dependent Ca^2+ release in human monocyte-derived macrophages (HMDMs); endogenous in cells; host or cells: primary human monocyte-derived macrophages (HMDMs); settings: HMDMs, hC3a 100 nM, n ≥ 3, ± SEM
Protocol: as §1, §2

mast cells = experiment: Mast cell stabilizer in BR103-induced rat paw edema; format: in vivo; settings: 20 mg/kg s.c., 30 min prior, 0.5 h
Protocol: Male Wistar rats (8–9 weeks) were injected with BR103 (3, 350 μg in 100 μL isotonic saline) into the plantar surface of both hind paw pads using a 30G needle. The inhibitor cromolyn (20 mg/kg in 5% DMSO) was injected subcutaneously 30 min before the agonist. The antagonist BR111 (6, 5–20 mg/kg in olive oil) was administered orally as a single dose 2 h before the agonist. Paw thickness and width were measured using digital calipers (WPI) at 0, 0.5, 2, 6 and 24 h after agonist BR103 administration. Hind paw size is expressed as % change in area from baseline after 0.5 h and then normalized against maximum swelling induced by agonist alone. Researchers were not blinded to treatments given. Rat paw tissue was collected and fixed in 4% paraformaldehyde (pH 7.4) for 2 h in the cold room (4 °C). The rat paw tissue was then transferred into falcon tubes containing 30% sucrose solution in PBS and left overnight in the cold room. The next day, rat paw tissue was embedded with the Optimal Cutting Temperature compound (OCT, Sakura Finetek, USA) and stored in the −80 °C freezer before being used for making cryo-sections for histological analysis. Frozen sections of 5 microns were prepared using a cryostat-microtome (Leica Biosystems, Germany) and stained using standard protocols on the same day. In normal histological staining, such as with alcian blue and safranin O and hematoxylin and eosin (H&E), samples were briefly washed with distilled water before staining. In alcian blue and safranin O, samples were stained with 0.1% alcian blue (Sigma-Aldrich, USA) and 0.5% safranin O (Sigma-Aldrich, USA) before being mounted in mounting medium. In H&E, samples were stained with hematoxylin (Sigma-Aldrich, USA) and 0.1% eosin (Sigma-Aldrich, USA) before being mounted in mounting medium. In immunohistochemistry, samples were briefly rinsed with PBS to remove OCT and incubated with blocking medium (PBS, 0.1% triton X-100, 10% horse serum) for 1 h at room temperature. Samples were incubated with primary antibody medium (PBS, 4% horse serum, 1:200 histamine or 1:200 of tryptase or 1:150 ED1 or 1:200 ED2 antibodies) overnight at 4 °C. The next day, samples were washed with PBS and were incubated with the secondary antibody medium (PBS, 4% horse serum, detection antibody 1:1000) for 1 h at room temperature. The samples were briefly rinsed, dried and counterstained with DAPI (Invitrogen, Australia). Primary antibodies for histamine (Sigma-Aldrich, USA, H2403, monoclonal rabbit anti-rat IgG, 1: 200), tryptase (Abcam, Australia, ab2378, monoclonal mouse anti-rat IgG, 1:200), ED1 (Serotec, UK, MCA341R, monoclonal mouse anti-rat, 1:150), ED2 (Serotec, UK, MCA3424R, monoclonal mouse anti-rat, 1:200) were purchased from commercial sources. Secondary detection antibody was purchased from (Invitrogen, Australia). ED1 & ED2 positive cells were quantified using FIJI/ImageJ 1.42q software, U.S. National Institutes of Health, Bethesda, MD, USA[44]. All microscope images were obtained using an Olympus BX-51 upright microscope with Olympus DP-71 12Mp colour camera, utilizing DP Capture and DP Manager software packages (Olympus, Tokyo, Japan). Researchers who performed histological analysis and scoring were blinded to the sample identity. Rat paw tissues were collected and immediately frozen with liquid nitrogen. Frozen rat paw tissues were cut into smaller pieces and mixed with 1 mL of TRIsure (Bioline, Australia) prior to homogenizing according to manufacturer’s instructions. […]

C5aR = target: T2, C5aR (Homo sapiens, UniProt P21730); experiment: [125I]-hC5a competition binding on HMDMs; settings: [125I]-hC5a 25 pM
T2 construct: endogenous in cells; host or cells: primary human monocyte-derived macrophages (HMDMs)
T2 sequence (P21730 1-350): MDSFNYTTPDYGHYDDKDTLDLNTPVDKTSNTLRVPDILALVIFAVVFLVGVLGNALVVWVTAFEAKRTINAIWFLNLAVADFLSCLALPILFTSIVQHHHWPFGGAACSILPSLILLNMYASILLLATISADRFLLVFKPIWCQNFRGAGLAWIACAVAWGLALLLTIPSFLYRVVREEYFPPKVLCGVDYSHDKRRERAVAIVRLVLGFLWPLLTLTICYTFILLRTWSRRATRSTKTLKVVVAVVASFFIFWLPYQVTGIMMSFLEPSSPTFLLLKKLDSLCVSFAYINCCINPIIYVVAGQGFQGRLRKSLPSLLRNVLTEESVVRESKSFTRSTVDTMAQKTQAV
Protocol: Receptor binding was performed by ligand competition with labelled 80 pM [^125I]-C3a or 25 pM [^125I]-C5a (2200 Ci/mmol; Perkin Elmer, Torrance, CA, USA) on HMDMs (1.2 × 10^6 cells/ml). HMDMs were treated with [^125I]-C3a or [^125I]-C5a ± various concentrations of unlabelled C3a/C5a or experimental ligands were diluted with assay buffer (50 mM Tris, 3 mM MgCl2, 0.1 mM CaCl2, 0.5% (w/v) BSA, pH 7.4) for 60 min at room temperature. Unbound [^125I]-C3a or [^125I]-C5a was removed by filtration through glass microfibre filter GF/B (Whatman Iner. Ltd, England) and washed three times with cold buffer (50 mM Tris-HCl pH 7.4). Bound [^125I]-C3a or [^125I]-C5a were assessed by scintillation counting on Microbeta counter. Specific binding was defined as the difference between total binding and nonspecific binding as determined in the presence of 1 μM unlabelled C3a or C5a[4].

- Type of agonist response, histamine release (C3aR [1]): partial agonist
- EC50 (C3aR [1]): 110 ± 40 nM
- EC50 (C3aR [2]): 50 ± 20 nM
Molecule: N=C(N)NCCC[C@H](NC(=O)c1csc(C(c2ccccc2)c2ccccc2)n1)C(=O)O [Compound 1]

- IC50 (C3aR [3]): 2000 ± 1100 nM
Molecule: Cc1nc(C(c2ccccc2)c2ccccc2)sc1C(=O)NC(CCCNC(=N)N)C(=O)O (stereo not drawn) [Compound 5]

Molecule: O=C(O)c1cc(=O)c2c(OCC(O)COc3cccc4oc(C(=O)O)cc(=O)c34)cccc2o1 [cromolyn]
- Effect on BR103-induced histamine expression in paw (mast cells): reduced histamine expression
- Effect on BR103-induced infiltration of ED1+ macrophages (mast cells): reduced infiltration of inflammatory ED1^+ macrophages
- Effect on BR103-induced inflammatory gene expression (Il1β, Il6, Tnf, Ccl3, Mcp1) (mast cells): reduced expression of early response inflammatory genes
- Effect on BR103-induced mast cell activation and degranulation (mast cells): attenuated BR103-induced increased activation
- Effect on BR103-induced paw swelling (mast cells; BR103 350 µg/paw i.pl.): significant reduction in BR103-induced paw swelling at 0.5 h, almost back to baseline levels

- C5aR binding by competition with [125I]-hC5a (C5aR): C5aR-binding
Molecule: Ac-cyclo-(2,6)-Phe-[Orn-Pro-dCha-Trp-Arg] [Compound 3D53, reference compound]

- Type of agonist response, histamine release (C3aR [1]): full agonist response
- EC50 (C3aR [1]): 300 ± 100 nM
- EC50 (C3aR [2]): 140 ± 60 nM
Molecule: Cc1sc(C(c2ccccc2)c2ccccc2)nc1C(=O)N[C@@H](CCCNC(=N)N)C(=O)O [Compound 2]

- IC50 (C3aR [3]): 600 ± 200 nM
Molecule: N=C(N)NCCCC(NC(=O)c1cnc(C(c2ccccc2)c2ccccc2)s1)C(=O)O (stereo not drawn) [Compound 4]

- C5aR binding by competition with [125I]-hC5a (C5aR): C5aR-binding
B1: hC5a: human complement protein C5a, ligand of C5aR (protein, UniProt P01031 678-751, looked up)
C5a anaphylatoxin: TLQKKIEEIAAKYKHSVVKKCCYDGACVNNDETCEQRAARISLGPRCIKAFTECCVVASQLRANISHKDMQLGR
modifications: C5a anaphylatoxin
notes: human complement protein C5a, ligand of C5aR
